Laboratory results as given in patent US20220387304A1, “MULTI-LAYERED NANOPARTICLE COATED SUBSTRATES FOR DRUG DELIVERY” (The UAB Research Foundation, priority 2019, published 2022).
Read-outs that look alike come from different tables or passages of the source.

Columns and labels:
Interleukin-8 (IL-8) = experiment: LPS-induced IL-8 secretion from HSNEC (ELISA); format: cell-based, human; conditions: n=3
Description: (§1) Primary HSNECs were collected with prior approval of the Institutional Review Board at University of Alabama at Birmingham (UAB) (IRB-120305017). Written informed consent from each participant was collected and subjects were screened and negative for a mutation in the cystic fibrosis transmembrane conductance regulator gene. Primary HSNECs were derived from turbinate mucosa from 3 healthy donors undergoing surgery for non-inflammatory conditions and cultured on collagen-coated Costar 6.5-mm-diameter permeable filter supports (Corning, Lowell, Mass.) submerged in established culture media. Differentiation and ciliogenesis occurred in all cultures within 10 to 14 days.^17-26 Matured HSNECs with resistance over 300 Ω/cm^2 and 80% field ciliogenesis by inverted microscopy were subjected to experiments.
After the incubation period, the basal media (600 μL) were collected and measured for IL-8 concentration in each sample according to the manufacture's protocol (R&D systems, Minneapolis, Minn.). The secreted IL-8 concentration in each sample was evaluated by measuring the absorbance at 450 nm using a microplate reader (Synergy HK, BIO-TEK Instruments, Winooski, Vt.). All samples were performed in triplicate.
To evaluate the anti-inflammatory effects of azithromycin on HSNEC, cells were stimulated with 25 μg/ml of P. aeruginosa lipopolysaccharide (LPS) for 2 hours, and treated with incremental azithromycin concentrations (6, 60, and 180 μg/ml) (FIG. 13). After a 24-hour incubation period, the basolateral media was harvested and secreted IL-8 was measured.

HSNECs [1] = experiment: Ciliary beat frequency analysis; format: cell-based, human
Description: After applying 100 μL of sterilized PBS as control or PBS containing drug to the apical surface of the cells, the motion images were acquired for 30 minutes. Under each condition, image acquisition was performed using a Basler area scan high-speed monochromatic digital video camera (Basler AG, Ahrensburg, Germany) at a sampling rate of 100 frames per second. The Sisson-Ammons Video Analysis (SAVA) system was used to acquire CBF. Baseline CBF recording was conducted in the previously described manner, and each analysis of CBF was normalized to fold-change over baseline CBF Hz (treatment/baseline).^28

HSNECs [2] = experiment: HSNEC viability LDH assay; format: cell-based, human
Description: Concentration gradients generated from internal standards (with positive controls) provided by the manufacturer render a theoretical kit detection range in biological samples containing IL-8. […] Louis, Mo.). […] The resulting formazan absorbs maximally at 492 nm and can be measured quantitatively at 490 nm. Total LDH in each sample was expressed as ng/ml.

HSNECs [3] = conditions: human, 30 μg/ml
Description: as §1

HSNECs [4] = experiment: Paracellular permeability of FITC dextran across HSNECs; format: cell-based, human; conditions: for average paracellular permeability of dextran particles: human
Description: The diffusion-barrier of […] is determined by a tight epithelial barrier and tight junction formation and is impacted by a number of chemicals. […] The permeated concentrations of FITC dextran were quantified by a fluorescence microplate reader.

Compound	secreted IL-8 (Interleukin-8 (IL-8); ciprofloxacin 2.4 μg/ml alone with LPS exposure) [ng/mL]	ciliary beat frequency (HSNECs [1])	cellular viability of HSNECs, LDH (HSNECs [2])	secreted IL-8 (Interleukin-8 (IL-8); azithromycin 6 μg/ml, 25 μg/ml LPS 2 hours, 24-hour incubation) [ng/mL]	secreted IL-8 (Interleukin-8 (IL-8); azithromycin 60 μg/ml, 25 μg/ml LPS 2 hours, 24-hour incubation) [ng/mL]	secreted IL-8 (Interleukin-8 (IL-8); azithromycin 180 μg/ml, 25 μg/ml LPS 2 hours, 24-hour incubation) [ng/mL]	normalized TEER (HSNECs [3]; 3 h)	normalized TEER (HSNECs [3]; 6 h)	paracellular permeability of HSNECs over time (HSNECs [4])	average paracellular permeability of dextran particles (HSNECs [4]; 3 h)	average paracellular permeability of dextran particles (HSNECs [4]; 6 h)
O=C(O)c1cn(C2CC2)c2cc(N3CCNCC3)c(F)cc2c1=O [ciprofloxacin]	6.40 ± 0.26	No significant difference in ciliary beat frequency	No detrimental effect on the cellular viability								
CC[C@H]1OC(=O)[C@H](C)[C@@H](O[C@H]2C[C@@](C)(OC)[C@@H](O)[C@H](C)O2)[C@H](C)[C@@H](O[C@@H]2O[C@H](C)C[C@H](N(C)C)[C@H]2O)[C@](C)(O)C[C@@H](C)CN(C)[C@H](C)[C@@H](O)[C@]1(C)O [azithromycin]		No significant difference in ciliary beat frequency	No detrimental effect on the cellular viability	4.579 ± 0.399	4.312 ± 0.057	4.269 ± 0.258	1.14+/−0.06 Ω/cm^2	1.02+/−0.37 Ω/cm^2	No alterations in average paracellular permeability	0.10+/−0.15%	3.44+/−0.24%
